Measured values published in patent US11541056B2, “3-hydroxy-N-(3-(7H-pyrrolo[2,3-d]pyrimidin-4-yl)phenyl)pyrrolidine-1-carboxamide derivatives” (NOVARTIS AG, priority 2018, dated 2023).

Columns and labels:
BTK-GFP = molecular target: T1, BTK-GFP (Homo sapiens, UniProt Q06187+Q96SW2); experiment: BTK-GFP protein abundance flow cytometry assay in HEK293A cells; type: cell-based; conditions: 24 h
T1 construct: the BTK open reading frame (ORF) was first shuttled from a pcDNA-DEST40-BTK vector (Invitrogen library ID INV_20090504v1); expressed in transfected cells; host or cells: HEK293A cells (Invitrogen R70507), lentiviral transduction with pLenti6-BTK-GFP-Ires-RFP, blasticidin-selected
Outline: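 HEK293A cells stably expressing BTK-GFP-iresRFP treated 24 h at 37° C with 10-point 1:3 dilutions from 10 μM (0.1% DMSO), in duplicate. Median GFP of 5,000 single cells by flow cytometry, normalized to GFP-negative iresRFP cells (0%) and DMSO (100%); DC50 from concentration-response curves.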

IKZF3-GFP = molecular target: T2, IKZF3-GFP (Homo sapiens, UniProt Q9UKT9); experiment: IKZF3-GFP protein abundance flow cytometry assay in HEK293A cells; type: cell-based; conditions: 24 h, Table 1
T2 construct: gateway cloning of IKZF3 from a pENTR221-IKZF3(STOP-Leu) construct into the previously described pLenti6-DEST-GFP-Ires-RFP vector; expressed in transfected cells; host or cells: HEK293A cells (Invitrogen R70507), lentiviral transduction with pLenti6-IKZF3-GFP-Ires-RFP, blasticidin-selected
Method: Compounds of the invention were tested in the following cellular assays. […] TMD8 cells are BTK dependent and OCI-LY3 cells are BTK independent.
BTK-GFP and IKZF3-GFP Protein Abundance Flow Cytometry Assay in HEK293A Cells:
Degradation of BTK or IKZF3 was measured in HEK293A cells (Invitrogen R70507) expressing either BTK-GFP and RFP or IKZF3-GFP and RFP from a stably integrated bicistronic BTK-GFP-iresRFP or IKZF3-GFP-iresRFP construct, respectively. Reduction of the GFP signal measured by flow cytometry served as readout for BTK or IKZF3 degradation after degrader treatment.
Stable HEK293A-BTK-GFP-iresRFP cells were maintained in complete growth medium (DMEM high Glucose+10% FCS+1% L-Glutamine+1% NEAA+1% NaPyr.) with passaging performed twice per week. On Day 0, HEK293A-BTK-GFP-iresRFP or HEK293A-IKZF3-GFP-iresRFP and HEK293A-iresRFP cells were seeded at 10,000 cells/well in a 96-well microtiter plate in 260 μl complete medium. On Day 1, cells were treated in duplicate with 10-point 1:3 dilution series of compound using the HP D300 Digital Dispenser (Tecan). DMSO concentrations were normalized across the plate to 0.1%. On Day 2, after 24 h of incubation at 37° C., treatment media was discarded, cells rinsed with 100 ul/well PBS and then detached using 40 ul trypsin/well for 5 min. Trypsin was neutralized with 100 ul/well PBS+20% FCS). Flow cytometry was performed on the samples using the BD FACS CANTO II (Becton Dickinson). Cell identification was then performed using forward (FSC) vs. side scatter (SSC) plots. Single cell discrimination is performed using SSC-Width (SSC-W) vs. SSC-Height (SSC-H) plots. Median GFP values for 5,000 single cells are used to determine BTK levels. Median GFP values from HEK293A-iresRFP are used as a background signal and thus defining 0% BTK signal. Median GFP values from DMSO treated HEK293A-BTK-GFP-iresRFP or HEK293A-IKZF3-GFP-iresRFP are used to define 100% BTK signal for subsequent DC50 curves (concentration at 50% BTK degradation). GFP and RFP are read in the channels called FITC and PE, respectively.
Concentration response curves plotting relative reduction of the GFP signal (measured by flow cytometry) versus 10 compound concentrations (starting concentration 10 μM, 3 fold dilution steps) of the compounds allowed generation of DC50 values.
Data is shown in Table 2, in which, DC50 refers to the concentration at which 50% maximal degradation was observed; deg Amax is the extent of degradation and the value refers to the % protein remaining at the concentration at which maximum degradation is seen.

T2 sequence (Q96SW2 whole entry partner): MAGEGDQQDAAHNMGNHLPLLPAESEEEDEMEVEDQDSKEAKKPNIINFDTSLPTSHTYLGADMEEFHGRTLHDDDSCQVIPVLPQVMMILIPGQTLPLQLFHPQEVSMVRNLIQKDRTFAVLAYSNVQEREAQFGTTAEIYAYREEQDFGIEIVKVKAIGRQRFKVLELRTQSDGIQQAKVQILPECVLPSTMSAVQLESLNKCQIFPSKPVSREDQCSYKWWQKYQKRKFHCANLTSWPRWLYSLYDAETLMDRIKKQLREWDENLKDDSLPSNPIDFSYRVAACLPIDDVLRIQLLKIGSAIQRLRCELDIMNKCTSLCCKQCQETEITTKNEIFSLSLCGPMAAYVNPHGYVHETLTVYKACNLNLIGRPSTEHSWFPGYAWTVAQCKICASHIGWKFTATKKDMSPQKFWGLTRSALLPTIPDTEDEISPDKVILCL
T2 sequence (Q16531 whole entry partner): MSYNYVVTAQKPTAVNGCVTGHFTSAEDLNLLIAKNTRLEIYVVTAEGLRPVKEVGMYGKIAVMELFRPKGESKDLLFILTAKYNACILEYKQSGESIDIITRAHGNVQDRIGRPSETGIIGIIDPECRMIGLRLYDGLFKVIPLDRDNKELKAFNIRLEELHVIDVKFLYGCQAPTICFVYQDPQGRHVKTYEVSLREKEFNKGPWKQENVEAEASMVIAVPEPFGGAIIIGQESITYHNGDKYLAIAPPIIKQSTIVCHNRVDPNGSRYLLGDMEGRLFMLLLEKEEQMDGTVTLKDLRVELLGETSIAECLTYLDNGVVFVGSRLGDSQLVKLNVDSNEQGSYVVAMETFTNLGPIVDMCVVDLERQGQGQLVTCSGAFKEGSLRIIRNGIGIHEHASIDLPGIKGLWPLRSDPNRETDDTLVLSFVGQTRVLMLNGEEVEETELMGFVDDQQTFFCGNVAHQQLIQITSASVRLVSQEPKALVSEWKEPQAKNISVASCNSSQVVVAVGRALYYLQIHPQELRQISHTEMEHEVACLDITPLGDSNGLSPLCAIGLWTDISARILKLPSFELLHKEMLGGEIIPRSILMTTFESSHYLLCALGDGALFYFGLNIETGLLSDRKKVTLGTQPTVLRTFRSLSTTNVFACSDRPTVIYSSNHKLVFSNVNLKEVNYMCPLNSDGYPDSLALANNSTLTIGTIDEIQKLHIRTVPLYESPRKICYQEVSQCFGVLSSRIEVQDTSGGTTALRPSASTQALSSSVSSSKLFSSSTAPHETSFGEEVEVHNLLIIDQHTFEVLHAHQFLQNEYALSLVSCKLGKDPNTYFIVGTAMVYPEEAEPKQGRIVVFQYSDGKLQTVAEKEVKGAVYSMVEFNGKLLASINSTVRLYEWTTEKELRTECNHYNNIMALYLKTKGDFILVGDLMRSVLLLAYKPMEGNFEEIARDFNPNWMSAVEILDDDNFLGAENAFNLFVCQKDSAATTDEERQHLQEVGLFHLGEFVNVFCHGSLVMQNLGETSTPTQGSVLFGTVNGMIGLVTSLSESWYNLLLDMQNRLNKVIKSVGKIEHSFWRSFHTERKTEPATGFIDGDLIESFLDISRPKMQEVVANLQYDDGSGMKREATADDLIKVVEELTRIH
T2 sequence (Q9UKT9 whole entry): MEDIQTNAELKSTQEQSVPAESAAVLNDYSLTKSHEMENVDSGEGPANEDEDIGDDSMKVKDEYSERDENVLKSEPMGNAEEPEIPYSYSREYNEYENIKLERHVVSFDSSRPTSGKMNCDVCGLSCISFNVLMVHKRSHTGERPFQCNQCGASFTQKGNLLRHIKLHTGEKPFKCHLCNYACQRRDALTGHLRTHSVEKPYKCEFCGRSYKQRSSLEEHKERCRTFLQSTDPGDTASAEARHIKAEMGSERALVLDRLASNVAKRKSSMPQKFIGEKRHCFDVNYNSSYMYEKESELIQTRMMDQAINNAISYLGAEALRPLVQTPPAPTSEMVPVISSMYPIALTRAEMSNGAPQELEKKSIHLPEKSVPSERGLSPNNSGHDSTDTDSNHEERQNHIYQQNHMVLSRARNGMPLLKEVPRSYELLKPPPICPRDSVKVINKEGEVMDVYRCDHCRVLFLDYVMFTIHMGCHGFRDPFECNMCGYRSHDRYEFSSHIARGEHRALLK
T1 sequence (Q06187 whole entry): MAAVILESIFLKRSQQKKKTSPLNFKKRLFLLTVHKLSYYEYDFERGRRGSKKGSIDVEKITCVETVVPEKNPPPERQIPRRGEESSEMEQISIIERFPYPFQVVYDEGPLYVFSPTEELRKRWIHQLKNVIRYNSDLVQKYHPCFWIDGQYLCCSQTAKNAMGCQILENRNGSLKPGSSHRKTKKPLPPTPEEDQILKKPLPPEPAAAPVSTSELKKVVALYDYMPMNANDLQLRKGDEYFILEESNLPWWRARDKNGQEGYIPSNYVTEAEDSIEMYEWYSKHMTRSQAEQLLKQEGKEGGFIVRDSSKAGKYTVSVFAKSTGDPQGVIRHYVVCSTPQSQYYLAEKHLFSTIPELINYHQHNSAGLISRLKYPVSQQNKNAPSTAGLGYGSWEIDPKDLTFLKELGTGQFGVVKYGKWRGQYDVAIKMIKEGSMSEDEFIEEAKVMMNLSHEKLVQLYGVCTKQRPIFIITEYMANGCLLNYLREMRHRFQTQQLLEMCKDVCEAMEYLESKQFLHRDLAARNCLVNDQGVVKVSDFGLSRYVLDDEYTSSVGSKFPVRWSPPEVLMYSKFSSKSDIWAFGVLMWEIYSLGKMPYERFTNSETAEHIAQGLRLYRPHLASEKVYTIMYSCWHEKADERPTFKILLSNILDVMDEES
T1 sequence (Q96SW2 whole entry): as the sequence (Q96SW2 whole entry partner) above
T1 sequence (Q16531 whole entry partner): as the sequence (Q16531 whole entry partner) above

BTK deg Amax % (BTK-GFP; % protein remaining at concentration of maximum degradation): 13% | DC50 (BTK-GFP; concentration at which 50% maximal degradation was observed): 0.0855 µM | IKZF3 deg Amax % (IKZF3-GFP; % protein remaining at maximum degradation): 102.4% | DC50 (IKZF3-GFP): > 1.1 µM
Structure (SMILES): COc1ccc(C(=O)N2CCC3(CCN(CCc4ccc(-c5cc6c(-c7cc(F)cc(NC(=O)N8C[C@@H](CC(C)C)[C@H](O)C8)c7C)ncnc6[nH]5)cc4)CC3)CC2)cc1N1CCC(=O)NC1=O [Compound 19, (3S,4R)—N-(3-(6-(4-(2-(9-(3-(2,4-dioxotetrahydropyrimidin-1(2H)-yl)-4-methoxybenzoyl)-3,9-diazaspiro[5.5]undecan-3-yl)ethyl)phenyl)-7H-pyrrolo[2,3-d]pyrimidin-4-yl)-5-fluoro-2-methylphenyl)-3-hydroxy-4-isobutylpyrrolidine-1-carboxamide]
